From patent publication US20230085307A1, “PYRIDAZINONE COMPOUND AND HERBICIDE” (NISSAN CHEMICAL CORPORATION, priority 2019, published 2023)

Tests used:
false cleavers [1] = experiment: Test Example 4: herbicidal effect by soil treatment (Table 19, symbol Q); type: in vivo, false cleavers (Galium spurium); conditions: amount of applied herbicide 320 g/ha
In short: (§1)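 Emulsion of test compound, water-diluted to predetermined amount, sprayed on soil after sowing (seed depth ~1.5 cm, sterilized diluvial soil). Greenhouse, 25–30° C. Effect graded at three weeks post-spray.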

transplanted rice = experiment: Test Example 1: effect on crop, application before weed generation under submerged conditions (Table 16, symbol a); type: in vivo; conditions: 320 g/ha applied herbicide
In short: (§2)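 Emulsion formulation, water-diluted to set dose, was put onto the flooded surface (4 cm depth, alluvial soil) the same day weeds were sown and 2.5-leaf rice transplanted. After 3 weeks at 25-30 °C under glass, each species was rated 0 (≤5% kill) to 5 (≥90% kill).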

Japanese bulrush = experiment: Test Example 1: herbicidal activity, application before weed generation under submerged conditions (Table 16, symbol B); type: in vivo, Japanese bulrush (Schoenoplectus juncoides); conditions: 320 g/ha applied herbicide
In short: as §2

late watergrass = experiment: Test Example 1: herbicidal activity, application before weed generation under submerged conditions (Table 16, symbol A); type: in vivo, late watergrass (Echinochloa oryzicola); conditions: 320 g/ha applied herbicide
In short: as §2

oval-leafed pondweed [2] = experiment: Test Example 2: herbicidal activity, application during weed generation under submerged conditions (Table 17, symbol C); type: in vivo, oval-leafed pondweed (Monochoria vaginalis); conditions: AAH 320 g/ha; application during weed generation, submerged conditions
In short: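 Steps: fill Wagner pots with alluvial soil; add water to give 4 cm depth; sow the species mixed; grow under glass at 25–30° C.; at 1–2 leaves apply water-diluted emulsion formulation to the water surface at a fixed herbicide amount; score after 3 weeks.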

windgrass = experiment: Test Example 4: herbicidal effect by soil treatment (Table 19, symbol L); type: in vivo, windgrass (Apera spica-venti); conditions: amount of applied herbicide 320 g/ha
In short: as §1

southern crabgrass = experiment: Test Example 5: herbicidal effect by foliage application, plastic box (Table 20, symbol F); type: in vivo, southern crabgrass (Digitaria ciliaris); conditions: foliage application, 320 g/ha, three weeks after application
In short: (§3)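 Post-emergence foliar test in sterilized diluvial soil. Compound applied as water-diluted emulsion at a predetermined rate to 14-day-old plants; evaluation at three weeks.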

Chinese sprangletop = experiment: Test Example 3: herbicidal effect by foliage application, Wagner pot (Table 18, symbol D); type: in vivo, chinese sprangletop (Leptochloa chinensis); conditions: 320 g/ha
In short: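 Plants were sown in alluvial soil held under 0.1–0.5 cm standing water and grown 14 days in a greenhouse at 25–30 °C. An emulsifiable formulation, water-diluted to the set dose, was then sprayed onto the foliage, and effects were scored three weeks later using previously defined criteria.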

persian speedwell = experiment: Test Example 4: herbicidal effect by soil treatment (Table 19, symbol R); type: in vivo, Persian speedwell (Veronica persica); conditions: amount of applied herbicide 320 g/ha
In short: as §1

false cleavers [3] = experiment: Test Example 5: herbicidal effect by foliage application, plastic box (Table 20, symbol Q); type: in vivo, false cleavers (Galium spurium); conditions: foliage application, 320 g/ha, three weeks after application
In short: as §3

oval-leafed pondweed [4] = experiment: Test Example 1: herbicidal activity, application before weed generation under submerged conditions (Table 16, symbol C); type: in vivo, oval-leafed pondweed (Monochoria vaginalis); conditions: 320 g/ha applied herbicide
In short: as §2

lambsquarters = experiment: Test Example 5: herbicidal effect by foliage application, plastic box (Table 20, symbol O); type: in vivo, lambsquarters (Chenopodium album); conditions: foliage application, 320 g/ha, three weeks after application
In short: as §3

barnyard grass = experiment: Test Example 5: herbicidal effect by foliage application, plastic box (Table 20, symbol H); type: in vivo, barnyard grass (Echinochloa crus-galli); conditions: foliage application, 320 g/ha, three weeks after application
In short: as §3

blackgrass = experiment: Test Example 4: herbicidal effect by soil treatment (Table 19, symbol J); type: in vivo, blackgrass (Alopecurus myosuroides); conditions: amount of applied herbicide 320 g/ha
In short: as §1

rapeseed = experiment: Test Example 5: effect on crop by foliage application, plastic box (Table 20, symbol g); type: in vivo; conditions: 320 g/ha, three weeks after application
In short: as §3

beet = experiment: Test Example 4: effect on crop by soil treatment (Table 19, symbol f); type: in vivo; conditions: amount of applied herbicide 320 g/ha
In short: as §1

Cc1nn(C)c(=O)c(-c2c(-c3ccc(C#N)cc3)sc3ccccc23)c1O [Compound No. 1-045, 5-hydroxy-2,6-dimethyl-4-(2-(4-cyanophenyl)benzo[b]thiophen-3-yl)pyridazin-3(2H)-one]
herbicidal effect rating, Q: false cleavers (false cleavers [1]): 4 (Herbicidal rate of 70% or more and less than 90%) | Effect on crop a: transplanted rice (grade 0-5) (transplanted rice): 0 (Herbicidal rate of 5% or less (almost no effect)) | Herbicidal effect on B: Japanese bulrush (grade 0-5) (Japanese bulrush): 4 (Herbicidal rate of 70% or more and less than 90%) | Herbicidal effect on A: late watergrass (grade 0-5) (late watergrass): 1 (Herbicidal rate of 5% or more and less than 20%) | herbicidal effect rating, C: oval-leafed pondweed (oval-leafed pondweed [2]): 4 (Herbicidal rate of 70% or more and less than 90%) | herbicidal effect rating, L: windgrass (windgrass): 0 (Herbicidal rate of 5% or less (almost no effect)) | herbicidal effect grade, F: southern crabgrass (southern crabgrass): 3 (Herbicidal rate of 40% or more and less than 70%) | herbicidal effect on D (Chinese sprangletop), rating 0-5 (Chinese sprangletop): 4 (Herbicidal rate of 70% or more and less than 90%) | herbicidal effect rating, R: persian speedwell (persian speedwell): 5 (Herbicidal rate of 90% or more (almost completely withered)) | herbicidal effect grade, Q: false cleavers (false cleavers [3]): 5 (Herbicidal rate of 90% or more (almost completely withered)) | Herbicidal effect on C: oval-leafed pondweed (grade 0-5) (oval-leafed pondweed [4]): 4 (Herbicidal rate of 70% or more and less than 90%) | herbicidal effect grade, O: lambsquarters (lambsquarters): 5 (Herbicidal rate of 90% or more (almost completely withered)) | herbicidal effect grade, H: barnyard grass (barnyard grass): 4 (Herbicidal rate of 70% or more and less than 90%) | herbicidal effect rating, J: blackgrass (blackgrass): 0 (Herbicidal rate of 5% or less (almost no effect)) | melting point: 240 to 242 °C | effect on crop grade, g: rapeseed (rapeseed): 5 (Herbicidal rate of 90% or more (almost completely withered)) | effect rating on crop, f: beet (beet): 5 (Herbicidal rate of 90% or more (almost completely withered))
